For assay [1], the system named is LNCaP (human prostate carcinoma). Briefly: Cell proliferation (MTS) assay, LNCaP. Type of assay: cell-based. The settings on record: Homo sapiens, LNCaP, 72 h, Table 1; three days treatment. As for the experimental part:
(§1) Results of cell proliferation assays for exemplary compounds are shown below in Tables 1 and 2. Cell lines LNCaP (human prostate carcinoma), MDA468 (human breast cancer cell), MDA435 (human breast adenocarcinoma), and DU145 (human prostate carcinoma[…]) were purchased from American Type Culture Collection (ATCC) (Rockville, Md.). Cells were cultured in RPMI Medium 1640 containing 10% fetal bovine serum (FBS) in a 37° C. incubator containing 5% CO2. All cell culture reagents were purchased from Gibco-BRL (Grand Island, N.Y.). Cells were plated in 96-well culture plates at about 3000 cells per well. One day following plating, compounds or vehicle controls (buffer only) were added to cells. Proliferation assays were performed three days post initiation of treatment.
(§2) For a non-radioactive cell proliferation assay, viable cell densities are determined by measuring metabolic conversion (by viable cells) of the dye MTS tatrazolium dye, a cell proliferation assay known by one of skill in the art (MTS assay), a previously established cell proliferation assay. The assay is performed using an assay kit (Promega Corp., Madison, Wis.). The assay plates are incubated for 1-2 hours, and the results are read in a 96-well format plate reader by measuring absorbance at 490 nm. Effect of each compound is calculated as a percentage of control cell growth obtained from vehicle-treated cells grown in the same plate.

The test system of assay [2] is DU145 (human prostate carcinoma/lymphocytic leukemia). Briefly: Cell proliferation (MTS) assay, DU145. Type of assay: cell-based. Conditions: Homo sapiens, DU-145, 72 h, Table 1; three days treatment. As for the experimental part:
as §1, §2

The test system of assay [3] is MDA435 (human breast adenocarcinoma). Briefly: Cell proliferation (MTS) assay, MDA435. Conditions: Homo sapiens, MDA435, 72 h, Table 1; three days treatment. It is filed as cell-based. As for the experimental part: as §1, §2
In assay [4] the test system is MDA468 (human breast cancer cell). Briefly: Cell proliferation (MTS) assay, MDA468. It is filed as cell-based. Conditions: Homo sapiens, 72 h, Table 1; three days treatment. As for the experimental part: as §1, §2
A further assay concerns the target T1, Human TOR (Homo sapiens, UniProt P42345).
T1 construct: FLAG
Briefly: Human TOR (mTOR) kinase assay, DELFIA format. It is filed as biochemical. The settings on record: Table 1. As for the experimental part: The PI3K/AKT/TOR pathway is critical for cell proliferation, growth, survival, and angiogensis. Accordingly, compounds of the present invention may also be useful to inhibit TOR activity. Similar in vivo and in vitro assays to those described above with reference to PI3K can be used to determine the minimum concentration of compound sufficient to inhibit TOR. A human TOR assay and a Rat1-IGF1 assay as described in Examples 67 and 68, respectively was performed with some embodiments of the invention. The results of these assays are shown below in Tables 1 and 2.
Human TOR assays (See Toral-Barza, et al. Biochem Biophys. Res. Commun. 2005 Jun. 24; 332(1):304-10) with purified enzyme are performed in 96-well plates by DELFIA format as follows. Enzymes are first diluted in kinase assay buffer (10 mM Hepes (pH 7.4), 50 mM NaCl, 50 mM b-glycerophosphate, 10 mM MnCl2, 0.5 mM DTT, 0.25 mM microcystin LR, and […] BSA). To each well, 12 mL of the diluted enzyme is mixed briefly with 0.5 mL test inhibitor or control vehicle dimethylsulfoxide (DMSO). The kinase reaction is initiated by adding 12.5 mL kinase assay buffer containing ATP and His6-S6K to give a final reaction volume of 25 mL containing 800 ng/mL FLAG-TOR, […] ATP and […] His6-S6K. The reaction plate is incubated for 2 hours (linear at 1-6 hours) at room temperature with gentle shaking and then terminated by adding 25 mL Stop buffer (20 mM Hepes (pH 7.4), 20 mM EDTA, 20 mM EGTA). The DELFIA detection of the phosphorylated (Thr-389) His6-S6K is performed at room temperature using a monoclonal anti-P(T389)-p70S6K antibody (1A5, Cell Signaling) labeled with Europium-N1-ITC (Eu) (10.4 Eu per antibody, PerkinElmer). The DELFIA Assay buffer and Enhancement solution can be purchased from PerkinElmer. 45 mL of the terminated kinase reaction mixture is transferred to a MaxiSorp plate (Nunc) containing 55 mL PBS. The His6-S6K is allowed to attach for 2 hours after which the wells are aspirated and washed once with PBS. 100 mL of DELFIA Assay buffer with 40 ng/mL Eu-P(T389)-S6K antibody is added. The antibody binding is continued for 1 hour with gentle agitation. The wells are then aspirated and washed 4 times with PBS containing 0.05% Tween-20 (PBST). […] of DELFIA Enhancement solution is added to each well and the plates are read in a PerkinElmer Victor model plate reader. Data obtained is used to calculate enzymatic activity and enzyme inhibition by potential inhibitors.

The next assay concerns T2, PI3K.
T2 construct: PI3K FP IC50
Briefly: Fluorescence polarization assay for PI3K. The settings on record: Table 1. It is filed as biochemical. Here is the method:
This assay is used to determine the IC50 of compounds of the present invention as it identifies inhibitors of PI3 kinase by measuring inhibition.
The assay is run by placing 5 μL of diluted enzyme per well, then 5 μL of diluted compound (or 9.5 μL enzyme then 0.5 μL compound in DMSO) is added and mixed. Then, 10 μL substrate is added to start the reaction. The samples are incubated 30-60 minutes, then the reaction is stopped by adding 20 μL stop/detector mix.
PI3K is diluted with reaction buffer (e.g., 5 μL or 7.5 μL PI3K into 620 μL reaction buffer), and 5 μL of diluted enzyme is used per well. 5 μL reaction buffer or drug diluted in buffer (e.g., 4 μL/100 so final DMSO is 1% in reaction) is added to each. The samples are mixed by pipetting up and down. Alternatively, the enzyme can be diluted to 1215 μL. In this case 9.8 μL is added per well and 0.2 μL compound is added in DMSO.
To prepare 1 mL of substrate solution, 955 μL reaction buffer, 40 μL PIP2, and 2.5 μL ATP are mixed. 10 μL of substrate is added to each well to start the reaction.
Stop/detector mix is prepared by mixing 4 μL Red detector and 1.6 μL or 2.0 μL GST-GRP with 1 mL Stop buffer, which results in 10 nM probe and 70 nM GST-GRP). 20 μL of the stop/detector mix is added to each well to stop the reaction. The plates are read after 30-90 minutes keeping the red probe solutions dark.
For the zero time point, stop/detector mix is added to the enzyme just before adding substrate. For an extra control, stop/detector mix is added to buffer (no enzyme) and substrate or to just buffer (no substrate).
The recommended reaction has 0.06 μL per 20 μL (0.015 μg/20 μL) or 0.01125 μg/15 μL or 0.75 μg/mL.
Plates are read on machines with filters for Tamra. The units are mP with no enzyme controls reading app 190-220 mP units. Fully active enzyme reduces fluorescence polarization down to 70-100 mP after 30 minutes. An active cpd raises the mP values halfway to control or to 120-150 mP units.

Nine molecules from patent US7666901B2, “Analogs of 17-hydroxywortmannin as PI3K inhibitors” (Wyeth, priority 2004, dated 2010) can be followed below.

Converted amounts (≈) assume the structure as drawn. A value given as a limit tells only on which side of the number the result lay.

As for `CCN(/C=C1/C(=O)O[C@H](COC)[C@@]2(C)C1=C(O)C(=O)C1=C2[C@H](OC(C)=O)C[C@]2(C)[C@@H](O)CC[C@@H]12)CC` [Compound 1, (1E,4S,4aR,5R,6aS,7S,9aR)-1-[(diethylamino)methylene]-7,11-dihydroxy-4-(methoxymethyl)-4a,6a-dimethyl-2,10-dioxo-1,2,4,4a,5,6,6a,7,8,9,9a,10-dodecahydroindeno[4,5-h]isochromen-5-yl acetate], the IC50 (in general, the concentration that inhibits the measured activity by half) in assay [1] was found to be 0.075 µg/mL; in assay [2], 2 µg/mL; in assay [3] it was 6 µg/mL; in assay [4] it was 1 µg/mL.
Take `COC[C@H]1OC(=O)/C(=C/N2CCCC2)C2=C(O)C(=O)C3=C([C@H](OC(C)=O)C[C@]4(C)[C@@H](O)CC[C@@H]34)[C@]21C` [Compound 2, (1E,4S,4aR,5R,6aS,7S,9aR)-7,11-dihydroxy-4-(methoxymethyl)-4a,6a-dimethyl-2,10-dioxo-1-(Pyrrolidin-1-ylmethylene)-1,2,4,4a,5,6,6a,7,8,9,9a,10-dodecahydroindeno[4,5-h]isochromen-5-yl acetate]: the IC50 against Human TOR is greater than 19900 nM; in assay [1], 0.1 µg/mL; in assay [2], 1.4 µg/mL; in assay [3], 6 µg/mL; in assay [4] it was 1 µg/mL.
Taken in the same sequence, the figures for `CCN(/C=C1/C(=O)O[C@H](COC)[C@@]2(C)C1=C(O)C(=O)C1=C2[C@H](OC(C)=O)C[C@@]2(C)C1CC[C@@H]2OC=O)CC` (stereo partly drawn) [Compound 18, (1E,4S,4aR,5R,6aS,7S)-1-[(diethylamino)methylene]-7-(formyloxy)-11-hydroxy-4-(methoxymethyl)-4a,6a-dimethyl-2,10-dioxo-1,2,4,4a,5,6,6a,7,8,9,9a,10-dodecahydroindeno[4,5-h]isochromen-5-yl acetate] were 4700 nM, 0.11 µg/mL, 1.5 µg/mL, 6 µg/mL and 0.4 µg/mL.
Regarding `COCC1OC(=O)C(=CN(CCC#N)Cc2ccccc2)C2=C(O)C(=O)C3=C(C(OC(C)=O)CC4(C)C(O)CCC34)C21C` (stereo not drawn) [Compound 41, Acetic acid 4-{[benzyl-(2-cyano-ethyl)-amino]-methylene}-6,17-dihydroxy-1-methoxymethyl-10,13-dimethyl-3,7-dioxo-1,3,4,7,10,11,12,13,14,15,16,17-dodecahydro-2-oxa-cyclopenta[a]phenanthren-11-yl ester], the IC50 against Human TOR was 728 nM; in assay [1] it was 1.45 µg/mL (≈ 2.45 µM); in assay [4] it was 5 µg/mL (≈ 8.46 µM). In addition, the “PI3K FP IC50” value with PI3K is 0.028 µg/mL.
With `CCN(C=C1C(=O)OC(COC)C2(C)C1=C(O)C(=O)C1=C2C(OC(C)=O)CC2(C)C(O)CCC12)CCN(CC)CC` (stereo not drawn) [Compound 42, Acetic acid 4-{[(2-diethylamino-ethyl)-ethyl-amino]-methylene}-6,17-dihydroxy-1-methoxymethyl-10,13-dimethyl-3,7-dioxo-1,3,4,7,10,11,12,13,14,15,16,17-dodecahydro-2-oxa-cyclopenta[a]phenanthren-11-yl ester], the half-inhibitory concentration (IC50) against Human TOR was 1480 nM; in assay [1] it was 0.75 µg/mL (≈ 1.3 µM); in assay [4], 4.1 µg/mL (≈ 7.13 µM). The “PI3K FP IC50” value in the assay with PI3K stood at 0.014 µg/mL.
Consider `COCC1OC(=O)C(=CN(CCN(C)C)Cc2ccccc2)C2=C(O)C(=O)C3=C(C(OC(C)=O)CC4(C)C(O)CCC34)C21C` (stereo not drawn) [Compound 43, Acetic acid 4-{[benzyl-(2-dimethylamino-ethyl)-amino]-methylene}-6,17-dihydroxy-1-methoxymethyl-10,13-dimethyl-3,7-dioxo-1,3,4,7,10,11,12,13,14,15,16,17-dodecahydro-2-oxa-cyclopenta[a]phenanthren-11-yl ester], for which the IC50 is 4600 nM against Human TOR, 0.42 µg/mL (≈ 0.69 µM) in assay [1] and 3.4 µg/mL (≈ 5.59 µM) in assay [4]. Further, in the assay on PI3K, the “PI3K FP IC50” value came to 0.027 µg/mL.
Regarding `CCC(=O)OC1CC2(C)C(O)CCC2C2=C1C1(C)C(=C(O)C2=O)C(=CN(C)CCN(C)C)C(=O)OC1COC` (stereo not drawn) [Compound 49, Propionic acid 4-{[(2-dimethylamino-ethyl)-methyl-amino]-methylene}-6,17-dihydroxy-1-methoxymethyl-10,13-dimethyl-3,7-dioxo-1,3,4,7,10,11,12,13,14,15,16,17-dodecahydro-2-oxa-cyclopenta[a]phenanthren-11-yl ester], the IC50 at Human TOR is 1520 nM; in assay [1] it was 0.8 µg/mL (≈ 1.46 µM); in assay [4], 4.25 µg/mL (≈ 7.77 µM). In the assay on PI3K, the “PI3K FP IC50” value turned out to be 0.044 µg/mL.
On to `CCCC(=O)OC1CC2(C)C(O)CCC2C2=C1C1(C)C(=C(O)C2=O)C(=CN(C)CC(C)N(C)C)C(=O)OC1COC` (stereo not drawn) [Compound 63, Butanoic acid 4-{[(2-dimethylamino-propyl)-methyl-amino]-methylene}-6,17-dihydroxy-1-methoxymethyl-10,13-dimethyl-3,7-dioxo-1,3,4,7,10,11,12,13,14,15,16,17-dodecahydro-2-oxa-cyclopenta[a]phenanthren-11-yl ester], for which, on Human TOR, the midpoint of inhibition, the IC50, lay at 539 nM.
For the molecule “(1E,4S,4aR,5R,6aS,7S,9aR)-1-({4-[2-(2,5-dioxo-2,5-dihydro-1H-pyrrol-1-yl)ethyl]piperazin-1-yl}methylene)-7,11-dihydroxy-4-(methoxymethyl)-4a,6a-dimethyl-2,10-dioxo-1,2,4,4a,5,6,6a,7,8,9,9a,10-dodecahydroindeno[4,5-h]isochromen-5-yl acetate [Compound 65]”, at Human TOR, the “TOR IC50” value came out at 0.58 µg/mL. Further, the “PI3K FP IC50” value in the assay on PI3K amounted to 1.55 µg/mL.
